Assay results from patent US10988477B2 (Merck Patent GmbH, priority 2018, dated 2021).

Target: GCN2 kinase (Homo sapiens, UniProt Q9P2K8)
Experiment: GCN2 enzyme inhibition assay (Transcreener ADP2 fluorescence polarization)
Assay type: biochemical
Conditions: 280 μM ATP
Description: Compounds were screened for their ability to inhibit GCN2 kinase activity using a Transcreener® ADP^2 fluorescence polarization assay that detects ADP levels (BellBrook Labs, WI). Assays were carried out in a buffer consisting of 25 mM Tris-HCl (pH 7.5), 50 mM NaCl, 10 mM MgCl2 and 1 mM DTT. Final substrate concentrations were 280 μM ATP and 200 μM peptidic substrate ([…]-OH [(RS)7], Bachem, Switzerland). Assays were carried out at 25° C. in the presence of a (typical) final concentration of 4 nM GCN2 kinase. An assay buffer containing GCN2 kinase and (RS)7 was prepared. 4.7 μL of this stock solution was placed per well of a black, low volume, 384-well microtitre plate (e.g. catalogue number 3676, Corning Inc., NY). To this was added […] of DMSO containing serial dilutions of the test compound (typical final concentrations of test compound were 0 to 8 μM). The plate was incubated for 10 minutes at 25° C. prior to the addition of 4.7 μL of ATP stock buffer to initiate the enzyme reaction. The reaction was allowed to proceed for 1 hour at 25° C., prior to the addition of 10 μL detection buffer (consisting of appropriate concentrations of ADP^2 antibody and ADP Alexa633 tracer in 1× stop and detect buffer as supplied by BellBrook Labs). […] Percentage inhibition of enzyme activity was then calculated at each compound dose. IC50 and Ki(app) (using known assay and kinetic parameters) values were calculated from percentage inhibition data using a non-linear, tight-binding algorithm. All data analysis was undertaken using the Screener® software package (Genedata, Switzerland).

[1] = compounds of Formula II, 4 nM GCN2 kinase
[2] = Enzyme activity for compounds of Formula IV, Ki(app), 25° C.

Sequence of GCN2 kinase (Q9P2K8 whole entry): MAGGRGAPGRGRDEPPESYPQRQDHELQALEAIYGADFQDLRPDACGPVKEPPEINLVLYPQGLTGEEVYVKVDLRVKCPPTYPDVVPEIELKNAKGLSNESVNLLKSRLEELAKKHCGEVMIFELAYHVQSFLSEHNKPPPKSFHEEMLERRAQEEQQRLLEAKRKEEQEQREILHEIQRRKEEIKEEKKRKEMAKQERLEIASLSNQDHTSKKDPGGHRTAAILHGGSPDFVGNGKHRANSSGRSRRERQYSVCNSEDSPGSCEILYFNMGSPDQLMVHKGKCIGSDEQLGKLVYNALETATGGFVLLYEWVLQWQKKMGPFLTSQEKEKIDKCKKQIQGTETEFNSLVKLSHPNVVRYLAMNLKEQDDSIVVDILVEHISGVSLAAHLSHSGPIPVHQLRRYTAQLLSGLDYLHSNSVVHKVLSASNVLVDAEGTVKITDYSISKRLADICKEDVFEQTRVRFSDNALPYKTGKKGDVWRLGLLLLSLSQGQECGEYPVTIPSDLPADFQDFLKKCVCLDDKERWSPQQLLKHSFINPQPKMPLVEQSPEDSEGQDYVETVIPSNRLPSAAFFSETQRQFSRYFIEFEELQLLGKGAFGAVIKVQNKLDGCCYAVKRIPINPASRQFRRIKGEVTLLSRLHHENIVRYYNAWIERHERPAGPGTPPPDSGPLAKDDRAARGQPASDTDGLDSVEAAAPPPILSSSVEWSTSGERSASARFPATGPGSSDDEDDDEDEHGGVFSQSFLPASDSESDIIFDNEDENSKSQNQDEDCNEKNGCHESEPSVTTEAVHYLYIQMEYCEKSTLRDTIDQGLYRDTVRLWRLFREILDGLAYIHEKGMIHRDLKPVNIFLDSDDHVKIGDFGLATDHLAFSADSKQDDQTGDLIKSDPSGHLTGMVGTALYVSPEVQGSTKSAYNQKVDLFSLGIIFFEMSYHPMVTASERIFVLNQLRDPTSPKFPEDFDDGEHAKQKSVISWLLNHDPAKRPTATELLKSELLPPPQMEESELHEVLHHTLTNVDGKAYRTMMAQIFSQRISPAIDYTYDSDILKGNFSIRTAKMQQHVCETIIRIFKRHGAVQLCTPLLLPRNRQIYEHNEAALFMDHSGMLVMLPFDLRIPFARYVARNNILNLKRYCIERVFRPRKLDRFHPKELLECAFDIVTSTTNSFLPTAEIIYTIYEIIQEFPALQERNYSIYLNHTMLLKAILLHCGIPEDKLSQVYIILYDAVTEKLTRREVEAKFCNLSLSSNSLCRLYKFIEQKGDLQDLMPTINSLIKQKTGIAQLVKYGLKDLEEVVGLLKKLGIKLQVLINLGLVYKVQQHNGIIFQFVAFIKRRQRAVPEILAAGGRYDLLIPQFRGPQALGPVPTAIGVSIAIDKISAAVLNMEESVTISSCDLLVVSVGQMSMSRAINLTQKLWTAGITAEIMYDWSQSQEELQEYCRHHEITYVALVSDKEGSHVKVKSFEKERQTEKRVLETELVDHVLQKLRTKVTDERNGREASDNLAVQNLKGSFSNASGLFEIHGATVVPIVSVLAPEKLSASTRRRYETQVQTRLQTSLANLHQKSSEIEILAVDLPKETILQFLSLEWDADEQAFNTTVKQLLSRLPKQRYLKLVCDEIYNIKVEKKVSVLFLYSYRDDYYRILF

Compound | Ki [1] | Ki [2]
CCS(C)(=O)=NC1CC(C)CN(c2cc(-c3cnc4ccc(C(F)F)nn34)ncn2)C1 (single isomer, unassigned) [II-640, ((1-(6-(6-(Difluoromethyl)imidazo[1,2-b]pyridazin-3-yl)pyrimidin-4-yl)-5-methylpiperidin-3-yl)imino)(ethyl)(methyl)-λ^6-sulfanone] | 10 to 1000 nM | 
CCS(C)(=O)=NC1CC(C)CN(c2cc(-c3cnc4ccc(C(F)F)nn34)ncn2)C1 (single isomer, unassigned) [II-641, ((1-(6-(6-(Difluoromethyl)imidazo[1,2-b]pyridazin-3-yl)pyrimidin-4-yl)-5-methylpiperidin-3-yl)imino)(ethyl)(methyl)-λ^6-sulfanone] | 10 to 1000 nM | 
CC1CC(N=S(C)(=O)C2CC2)CN(c2cc(-c3cnc4ccc(C(F)F)nn34)ncn2)C1 (single isomer, unassigned) [II-644, Cyclopropyl((1-(6-(6-(difluoromethyl)imidazo[1,2-b]pyridazin-3-yl)pyrimidin-4-yl)-5-methylpiperidin-3-yl)imino)(methyl)-λ^6-sulfanone] | 10 to 1000 nM | 
CC1CC(N=S(C)(=O)C2CC2)CN(c2cc(-c3cnc4ccc(C(F)F)nn34)ncn2)C1 (single isomer, unassigned) [II-645, Cyclopropyl((1-(6-(6-(difluoromethyl)imidazo[1,2-b]pyridazin-3-yl)pyrimidin-4-yl)-5-methylpiperidin-3-yl)imino)(methyl)-λ^6-sulfanone] | 10 to 1000 nM | 
CC1CC(N=S(C)(=O)C2CC2)CN(c2cc(-c3cnc4ccc(C(F)F)nn34)ncn2)C1 (single isomer, unassigned) [II-646, Cyclopropyl((1-(6-(6-(difluoromethyl)imidazo[1,2-b]pyridazin-3-yl)pyrimidin-4-yl)-5-methylpiperidin-3-yl)imino)(methyl)-λ^6-sulfanone] | 10 to 1000 nM | 
CC1CC(N=S(C)(=O)C2CC2)CN(c2cc(-c3cnc4ccc(C(F)F)nn34)ncn2)C1 (single isomer, unassigned) [II-647, Cyclopropyl((1-(6-(6-(difluoromethyl)imidazo[1,2-b]pyridazin-3-yl)pyrimidin-4-yl)-5-methylpiperidin-3-yl)imino)(methyl)-λ^6-sulfanone] | 10 to 1000 nM | 
CCC1CC(N=S(C)(C)=O)CN(c2cc(-c3cnc4ccc(C(F)F)nn34)ncn2)C1 (single isomer, unassigned) [II-651, ((1-(6-(6-(Difluoromethyl)imidazo[1,2-b]pyridazin-3-yl)pyrimidin-4-yl)-5-ethylpiperidin-3-yl)imino)dimethyl-λ^6-sulfanone] | 10 to 1000 nM | 
CC1CN(c2cc(-c3cnc4ccc(C(F)F)nn34)ncn2)C(C)C(c2cn[nH]c2)N1 (single isomer, unassigned) [II-653, 6-(Difluoromethyl)-3-(6-(2,5-dimethyl-3-(1H-pyrazol-4-yl)piperazin-1-yl)pyrimidin-4-yl)imidazo[1,2-b]pyridazine] | 10 to 1000 nM | 
CC1CC(C(N)=O)C(C)N(c2cc(-c3cnc4ccc(C(F)(F)F)nn34)ncn2)C1 (single isomer, unassigned) [II-718, 2,5-Dimethyl-1-[6-[6-(trifluoromethyl)imidazo[1,2-b]pyridazin-3-yl]pyrimidin-4-yl]piperidine-3-carboxamide] | 10 to 1000 nM | 
CC1CC(N=S(C)(C)=O)CN(c2cc(-c3cnc4ccc(C(F)F)nn34)c(F)cn2)C1 (single isomer, unassigned) [II-722, ((1-(4-(6-(Difluoromethyl)imidazo[1,2-b]pyridazin-3-yl)-5-fluoropyridin-2-yl)-5-methylpiperidin-3-yl)imino)dimethyl-λ^6-sulfanone] | 10 to 1000 nM | 
FC(F)(F)c1cn2c(-c3ccnc(N4CCOC(c5cn[nH]c5)C4)n3)cnc2cn1 (single isomer, unassigned) [IV-185, 2-(1H-Pyrazol-4-yl)-4-(4-(6-(trifluoromethyl)imidazo[1,2-a]pyrazin-3-yl)pyrimidin-2-yl)morpholine] |  | 10 to 100 nM
FC(F)(F)c1cn2c(-c3ccnc(N4CCOC(c5cn[nH]c5)C4)n3)cnc2cn1 (single isomer, unassigned) [IV-186, 2-(1H-Pyrazol-4-yl)-4-(4-(6-(trifluoromethyl)imidazo[1,2-a]pyrazin-3-yl)pyrimidin-2-yl)morpholine] |  | < 10 nM

More lines, now with the values ahead:

Ki [1] | Ki [2] | Compound
10 to 1000 nM |  | CC1C(N=S(C)(C)=O)CCCN1c1cc(-c2cnc3ccc(C(F)F)nn23)ncn1 (single isomer, unassigned) [II-594, ((1-(6-(6-(Difluoromethyl)imidazo[1,2-b]pyridazin-3-yl)pyrimidin-4-yl)-2-methylpiperidin-3-yl)imino)dimethyl-λ^6-sulfanone]
10 to 1000 nM |  | CC(C)(O)C1CCCN(c2cc(-c3cnc4ccc(C(F)F)nn34)ncn2)C1 (single isomer, unassigned) [II-613, 2-(1-(6-(6-(Difluoromethyl)imidazo[1,2-b]pyridazin-3-yl)pyrimidin-4-yl)piperidin-3-yl)propan-2-ol]
10 to 1000 nM |  | CC(C)(O)C1CCCN(c2cc(-c3cnc4ccc(C(F)F)nn34)ncn2)C1 (single isomer, unassigned) [II-614, 2-(1-(6-(6-(Difluoromethyl)imidazo[1,2-b]pyridazin-3-yl)pyrimidin-4-yl)piperidin-3-yl)propan-2-ol]
10 to 1000 nM |  | CC1CC(CS(C)(=O)=O)C(C)N(c2cc(-c3cnc4ccc(C(F)F)nn34)ncn2)C1 (single isomer, unassigned) [II-625, 6-(Difluoromethyl)-3-[6-[2,5-dimethyl-3-(methylsulfonylmethyl)-1-piperidyl]pyrimidin-4-yl]imidazo[1,2-b]pyridazine]
< 10 nM |  | CC1CC(CS(C)(=O)=O)C(C)N(c2cc(-c3cnc4ccc(C(F)F)nn34)ncn2)C1 (single isomer, unassigned) [II-626, 6-(difluoromethyl)-3-[6-[2,5-dimethyl-3-(methylsulfonylmethyl)-1-piperidyl]pyrimidin-4-yl]imidazo[1,2-b]pyridazine]
10 to 1000 nM |  | CC1CC(N=S(C)(C)=O)C(C)N(c2cc(-c3cnc4ccc(C(F)F)nn34)ncn2)C1 (single isomer, unassigned) [II-630, ((1-(6-(6-(Difluoromethyl)imidazo[1,2-b]pyridazin-3-yl)pyrimidin-4-yl)-2,5-dimethylpiperidin-3-yl)imino)dimethyl-λ^6-sulfanone]
10 to 1000 nM |  | CC1CCN(c2cc(-c3cnc4ccc(C(F)F)nn34)ncn2)CC1N=S(C)(C)=O (single isomer, unassigned) [II-632, ((1-(6-(6-(Difluoromethyl)imidazo[1,2-b]pyridazin-3-yl)pyrimidin-4-yl)-4-methylpiperidin-3-yl)imino)dimethyl-λ^6-sulfanone]
10 to 1000 nM |  | CC1CCN(c2cc(-c3cnc4ccc(C(F)F)nn34)ncn2)CC1N=S(C)(C)=O (single isomer, unassigned) [II-633, ((1-(6-(6-(Difluoromethyl)imidazo[1,2-b]pyridazin-3-yl)pyrimidin-4-yl)-4-methylpiperidin-3-yl)imino)dimethyl-λ^6-sulfanone]
10 to 1000 nM |  | CS(=N)(=O)CC1CCCN(c2cc(-c3cnc4ccc(C(F)F)nn34)ncn2)C1 (single isomer, unassigned) [II-636, ((1-(6-(6-(Difluoromethyl)imidazo[1,2-b]pyridazin-3-yl)pyrimidin-4-yl)piperidin-3-yl)methyl)(imino)(methyl)-λ^6-sulfanone]
10 to 1000 nM |  | CS(=N)(=O)CC1CCCN(c2cc(-c3cnc4ccc(C(F)F)nn34)ncn2)C1 (single isomer, unassigned) [II-637, ((1-(6-(6-(Difluoromethyl)imidazo[1,2-b]pyridazin-3-yl)pyrimidin-4-yl)piperidin-3-yl)methyl)(imino)(methyl)-λ^6-sulfanone]
10 to 1000 nM |  | CS(=N)(=O)CC1CCCN(c2cc(-c3cnc4ccc(C(F)F)nn34)ncn2)C1 (single isomer, unassigned) [II-638, ((1-(6-(6-(Difluoromethyl)imidazo[1,2-b]pyridazin-3-yl)pyrimidin-4-yl)piperidin-3-yl)methyl)(imino)(methyl)-λ^6-sulfanone]
10 to 1000 nM |  | CS(=N)(=O)CC1CCCN(c2cc(-c3cnc4ccc(C(F)F)nn34)ncn2)C1 (single isomer, unassigned) [II-639, ((1-(6-(6-(Difluoromethyl)imidazo[1,2-b]pyridazin-3-yl)pyrimidin-4-yl)piperidin-3-yl)methyl)(imino)(methyl)-λ^6-sulfanone]
< 10 nM |  | CCS(C)(=O)=NC1CC(C)CN(c2cc(-c3cnc4ccc(C(F)F)nn34)ncn2)C1 (single isomer, unassigned) [II-642, ((1-(6-(6-(Difluoromethyl)imidazo[1,2-b]pyridazin-3-yl)pyrimidin-4-yl)-5-methylpiperidin-3-yl)imino)(ethyl)(methyl)-λ^6-sulfanone]
< 10 nM |  | CCS(C)(=O)=NC1CC(C)CN(c2cc(-c3cnc4ccc(C(F)F)nn34)ncn2)C1 (single isomer, unassigned) [II-643, ((1-(6-(6-(Difluoromethyl)imidazo[1,2-b]pyridazin-3-yl)pyrimidin-4-yl)-5-methylpiperidin-3-yl)imino)(ethyl)(methyl)-λ^6-sulfanone]
